Experimental data reported in US5935945A, “Methods of treating or preventing cardiac arrhythmia” (Merck & Co., Inc., priority 1997, dated 1999).

Target: T1, IKr (rapidly activating delayed rectifier K^+ current) (Cavia porcellus, UniProt O08703)
T1 construct: Guinea pig ventricular myocytes were isolated; from tissue; host or cells: isolated guinea pig ventricular myocytes
T1 sequence (O08703 1-1294): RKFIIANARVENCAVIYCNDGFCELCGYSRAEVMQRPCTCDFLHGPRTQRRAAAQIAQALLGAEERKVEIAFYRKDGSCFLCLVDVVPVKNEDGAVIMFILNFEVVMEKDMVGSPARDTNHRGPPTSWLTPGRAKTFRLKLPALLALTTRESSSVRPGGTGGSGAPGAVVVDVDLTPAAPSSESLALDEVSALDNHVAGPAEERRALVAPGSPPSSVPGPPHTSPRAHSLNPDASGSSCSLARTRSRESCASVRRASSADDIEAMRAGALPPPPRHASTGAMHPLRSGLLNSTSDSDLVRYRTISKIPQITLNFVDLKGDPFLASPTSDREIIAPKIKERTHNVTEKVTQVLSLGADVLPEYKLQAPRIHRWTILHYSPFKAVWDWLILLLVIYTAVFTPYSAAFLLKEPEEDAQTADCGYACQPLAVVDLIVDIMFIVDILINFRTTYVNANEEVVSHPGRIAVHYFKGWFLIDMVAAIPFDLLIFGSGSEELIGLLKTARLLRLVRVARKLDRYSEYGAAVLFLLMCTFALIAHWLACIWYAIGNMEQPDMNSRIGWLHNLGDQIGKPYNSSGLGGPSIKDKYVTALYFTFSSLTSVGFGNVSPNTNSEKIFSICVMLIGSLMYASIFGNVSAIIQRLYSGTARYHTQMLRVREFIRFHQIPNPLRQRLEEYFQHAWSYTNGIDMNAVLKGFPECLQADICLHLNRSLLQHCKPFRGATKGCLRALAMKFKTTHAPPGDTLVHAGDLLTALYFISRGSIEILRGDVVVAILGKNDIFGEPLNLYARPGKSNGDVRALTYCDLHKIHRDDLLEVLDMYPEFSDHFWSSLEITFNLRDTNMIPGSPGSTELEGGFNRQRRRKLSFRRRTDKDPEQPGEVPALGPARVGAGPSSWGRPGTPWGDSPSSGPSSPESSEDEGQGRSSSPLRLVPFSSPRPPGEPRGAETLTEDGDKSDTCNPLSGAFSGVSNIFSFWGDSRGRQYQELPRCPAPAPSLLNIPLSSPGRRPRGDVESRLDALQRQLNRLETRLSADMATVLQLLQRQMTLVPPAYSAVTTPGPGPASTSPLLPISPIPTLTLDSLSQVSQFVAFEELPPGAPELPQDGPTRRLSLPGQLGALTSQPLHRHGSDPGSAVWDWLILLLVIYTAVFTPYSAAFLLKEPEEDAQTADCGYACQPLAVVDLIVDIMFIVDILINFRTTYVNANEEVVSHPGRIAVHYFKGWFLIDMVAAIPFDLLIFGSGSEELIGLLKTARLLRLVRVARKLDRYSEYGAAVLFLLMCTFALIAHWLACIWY
Test: Voltage-clamp measurement of IKr in guinea pig ventricular myocytes
Format: cell-based
Conditions: read-out: % Block (Guinea Pig Ventricle) IKr
Description: Guinea pig ventricular myocytes were isolated using a modification of the procedure described by Mitra et al., Am. J. Physiol. 249:H1056-60 (1985). Excised hearts were perfused through the aorta (retrograde fashion) at a rate of 10 ml/min with oxygenated, warmed (37° C.) solutions described below. The heart was initially perfused for 7 minutes with a Tyrode's solution containing, (in mM): 132 NaCl, 4 KCl, 1.2 MgCl2, 10 HEPES, 5 glucose, pH=7.2. The heart was then perfused with the same nominally Ca^2+ -free solution containing 150 units/ml Type II collagenase (Worthington) and 0.5 units/ml Type XIV protease (Sigma) for 8 minutes. This perfusate was followed by a Tyrode's solution containing 0.2 mM CaCl2 (without enzymes) for 5 minutes. The digested ventricles were cut into small pieces and gently shaken until cells were visibly dispersed. The cells were stored at room temperature until use, within 8 hours after isolation.
The suction microelectrode technique described by Giles, W. R. and Shibata, E. F., "Voltage clamp of bull-frog cardiac pacemaker cells: a quantitative analysis of potassium currents", J. Physiol. 368:265-292 (1985) was used to voltage clamp the cells. Microelectrodes were made by using a two stage puller from square bore (1.0 mm o.d.) borosilicate capillary tubing. Pipettes were filled with 0.5 M K gluconate, 25 mM KCl and 5 mM K2 ATP. The electrodes had resistances of 3 to 7 M.OMEGA. when filled with this solution. After establishing whole-cell recording mode, negative pressure was maintained on the pipette using a 1 ml gas-tight syringe attached via air tight tubing to the suction port of the microelectrode holder. This minimized dialysis of the cell with the pipette solution.
To record K^+ currents, the cells were bathed in a Ca^2+ -free Tyrode's solution containing […]. […] To record Ca^2+ currents, the cells were bathed in Tyrode's solution containing 1.8 mM Ca^2+ without nisoldipine. The cell chamber was superfused with solutions at a rate of 1-2 ml/minute, while maintaining the temperature at 35±1° C. A List EPC-7 clamp amplifier was used to voltage clamp the isolated cells. […] (Sanguinetti M. C. and Jurkiewicz, N. K., "Two components of cardiac delayed rectifier K^+ current: Differential sensitivity to block by Class III antiarrhythmic agents", J. Gen Physiol 1990; 96:194-214.) Data was analyzed as % block from control membrane currents.
Nisoldipine was prepared as a 4 mM stock solution in polyethylene glycol 200. […] At the final concentrations used neither polyethylene glycol 200 nor dimethyl sulfoxide had any effect on any of the measured membrane currents.
Selectivity for block of cardiac K^+ channels, IK1, IKr, and IKs was determined as previously described in guinea pig ventricular myocytes (U.S. Pat. No. 5,428,031).

Question: COc1ccc(-n2nc(Sc3ccc(Cl)cc3)c(C)c(C#N)c2=O)cc1 [Compound A, 6-(4-Chlorophenylthio)-2-(4-methoxyphenyl)-5-methyl-3-oxo-2,3-dihydropyridazine-4-carbonitrile] was tested. Which inhibition at 10 µM (@ 10 μM) did it give?
Answer: 29%

Question: COc1ccc(-n2nc(Sc3ccc(C)cc3)c(C)c(C#N)c2=O)cc1 [Compound B] was tested. Which inhibition at 3 µM did it give?
Answer: 4.2%

Question: With Cc1cc(C)c(CP(=O)(c2ccccc2)c2ccccc2)c(-c2ccc(F)c(C)c2)c1 [Compound C, 2-(Diphenylphosphinylmethyl)-4'-fluoro-3,5,3'-trimethyl-biphenyl] as the molecule, how does the inhibition at 3 µM read?
Answer: 11.1%
